Measured values from US20250108036A1, “COMPOSITIONS FOR REMOVING SENESCENT CELLS AND USES THEREOF” (LIFECEUTIX CO., LTD., priority 2021, published 2025).

Tests used:
Format in all cases: cell-based, human
[1] = test system: HMGN1; test: HMGN1 ELISA in culture medium of foreskin cells (Examples 10, 11; Tables 62, 63, 64); conditions: doxorubicin-treated foreskin cells, DMSO = 100; for activity at 30 µM: read-out: HMGN1
[2] = test system: foreskin cells in which senescence was induced by doxorubicin; test: CellTiter-Glo cell viability of doxorubicin-induced senescent foreskin cells (Examples 1-2, 10, 11, 13; Tables 4, 63, 65); conditions: doxorubicin-induced senescent foreskin cells, CellTiter-Glo, 0 μM = 100
[3] = test system: HMGN1; test: HMGN1 ELISA in culture medium of A549 cancer cells (Example 12, Table 66); conditions: ELISA, DMSO = 100; for HMGN1 (amount of HMGN1 secreted in the cell culture): doxorubicin-induced senescent A549 cells
[4] = test system: senescent foreskin cells; test: survival of senescent foreskin cells treated with medium supernatant (secreted fluid) of compound-killed cells (Example 13, Tables 68, 69); conditions: culture medium supernatant from dying senescent cells treated with compound at 30 μM, 90 μM or 270 μM; senescent foreskin cells
[5] = test system: A549; test: CellTiter-Glo cell viability of senescent A549 cancer cells (Example 12, Table 67); conditions: CellTiter-Glo; for Survival (%): doxorubicin-induced senescent A549 cancer cells
[6] = Homo sapiens, 72 h, 1.1 μM test compound, read-out: Survival (%)
[7] = Homo sapiens, 72 h, 10 μM test compound, read-out: Survival (%)
[8] = Homo sapiens, 72 h, […] test compound, read-out: Survival (%)
[9] = Homo sapiens, A549, doxorubicin-induced senescent A549 cancer cells, 1.1 μM test compound, read-out: Survival (%)
[10] = Homo sapiens, A549, doxorubicin-induced senescent A549 cancer cells, 10 μM test compound, read-out: Survival (%)
[11] = Homo sapiens, A549, doxorubicin-induced senescent A549 cancer cells, 30 μM test compound, read-out: Survival (%)
[12] = Homo sapiens, 30 μM test compound
[13] = Homo sapiens, A549, doxorubicin-induced senescent A549 cells, test compound 30 μM, read-out: HMGN1 (amount of HMGN1 secreted in the cell culture)

Compound	HMGN1 ([1]; 30 μM test compound)	Survival (%) ([2]; 1.1 μM test compound)	Survival (%) ([2]; 10 μM test compound)	Survival (%) ([2]; 30 μM test compound)	Survival (%) ([2]; […] test compound)	HMGN1 (amount of HMGN1 secreted in the cell culture) ([3]; test compound 30 μM)	Survival [4]	Survival (%) ([5]; 1.1 μM test compound)	Survival (%) ([5]; 10 μM test compound)	Survival (%) ([5]; 30 μM test compound)	also measured
CC(N)(Cc1ccc(O)cc1)C(=O)O (racemic) [LX-3206, Racemetyrosine, reference compound]	222	95.8	64.7	21.3	96	215	51.9	92.6	51.9	5.7	–
O=C(O)CC([S-])C(=O)O.[Au+] (stereo not drawn) [LX-202, Aurothiomalate, reference compound]	287	97.4	–	–	7.6	327	45.7	96.7	37.3	–	–
CN1CC[C@@H](Nc2cccc3c2cc(-c2noc(CNC(=O)c4cnn(C(C)(C)C)c4)n2)n3CC(F)(F)F)[C@@H](F)C1 [LX-915]	297	94.7	72.8	8.5	83.2	–	53.1	94.7	86.9	84.9	HMGN1 (amount of HMGN1 secreted in the cell culture) ([3]; test compound 90 μM): 229; Survival (%) ([5]; 90 μM test compound): 6.8%
Cc1nnc(NC(=O)c2nc(S(=O)(=O)Cc3ccc(F)cc3)ncc2Cl)s1 [LX-916]	317	103.5	54.5	3.5	94.2	–	48.7	103.9	71.7	24.4	HMGN1 (amount of HMGN1 secreted in the cell culture) ([3]; test compound 90 μM): 198; Survival (%) ([5]; 90 μM test compound): 1.7%
CS(=O)(=O)c1ncc(Cl)c(C(=O)O)n1 [LX-917]	269	101.8	45.8	4.7	93.2	–	42.5	101.5	65.7	17.1	HMGN1 (amount of HMGN1 secreted in the cell culture) ([3]; test compound 90 μM): 223; Survival (%) ([5]; 90 μM test compound): 3.5%
CC1=C(C)C(=O)C(CCCCCCCCCC[P+](c2ccccc2)(c2ccccc2)c2ccccc2)=CC1=O.[Br-] [LX-1205]	279	0.1	–	–	–	279	53.4	34.2	–	–	–
O=C(NCCCCCCCCCC[P+](c1ccccc1)(c1ccccc1)c1ccccc1)c1nn(Cc2ccc(Cl)cc2Cl)c2ccccc12.[Br-] [LX-1207]	285	36.8	–	–	10	318	62.7	59.8	–	–	–
C[Si](C)(Cc1ccc(F)cc1)CN1CCCCC1.Cl [LX-1407, Silperisone, reference compound]	232	99.4	72.8	19.9	95.9	175	69.9	101.5	71.7	39.4	–
C[C@@H]1C(=O)C(C#N)=C[C@]2(c3ccccc3)c3c(c(-c4cncnc4)nn3C)CC[C@@H]12 [LX-2408]	297	85.9	–	–	37.5	329	55.2	96.5	15.9	–	–
C[N+](C)(C)CCO.C[N+](C)(C)CCO.[SH-].[SH-].[S]=[Mo]=[S] [LX-2601]	263	95.2	58.6	21.8	81.8	193	67.3	98.6	59.7	50.7	–
CCOC(=O)[C@@H](N)CCC(=O)N[C@@H](CSCc1ccccc1)C(=O)N[C@@H](C(=O)OCC)c1ccccc1 [LX-2602, Ezatiostat, reference compound]	208	97.3	76.9	47.6	92.5	283	69.5	102.7	96	32.5	–
CN(Cc1cnc2nc(N)nc(N)c2n1)c1ccc(C(=O)N[C@@H](CCC(=O)O)C(=O)O)cc1 [LX-2901, Methotrexate, reference compound]	–	103.3	104.8	93.6	97.8	–	97.5	89	90.4	92.3	HMGN1 ([1]; 90 μM test compound): 167; Survival (%) ([2]; 90 μM test compound): 49.9%; HMGN1 (amount of HMGN1 secreted in the cell culture) ([3]; test compound 90 μM): 189; Survival (%) ([5]; 90 μM test compound): 37.2%
Cc1ccc(Nc2nccc(N(C)c3ccc4c(C)n(C)nc4c3)n2)cc1S(N)(=O)=O [LX-3301, Pazopanib, reference compound]	–	–	–	–	–	–	–	–	–	–	activity at 90 µM ([1]; Homo sapiens, 90 μM test compound): 228%; viability at 1.1 µM [2, 6]: 100%; viability at 10 µM [2, 7]: 67.4%; viability at 30 µM ([2]; Homo sapiens, 72 h, 30 μM test compound, read-out: Survival (%)): 39.5%; viability at 90 µM ([2]; Homo sapiens, 72 h, 90 μM test compound, read-out: Survival (%)): 2.7%; viability at […] [2, 8]: 99.2%; activity at 90 µM ([3]; Homo sapiens, A549, doxorubicin-induced senescent A549 cells, test compound 90 μM, read-out: HMGN1 (amount of HMGN1 secreted in the cell culture)): 229%; viability at 1.1 µM [5, 9]: 100%; viability at 10 µM [5, 10]: 85.9%; viability at 30 µM [5, 11]: 51.9%; viability at 90 µM ([5]; Homo sapiens, A549, doxorubicin-induced senescent A549 cancer cells, 90 μM test compound, read-out: Survival (%)): 4.2%
COc1cc2c(Nc3ccc(Br)cc3F)ncnc2cc1OCC1CCN(C)CC1 [LX-3302, Vandetanib, reference compound]	–	–	–	–	–	–	–	–	–	–	activity at 30 µM [1, 12]: 268%; viability at 1.1 µM [2, 6]: 99.3%; viability at 10 µM [2, 7]: 6.7%; viability at […] [2, 8]: 51.9%; activity at 30 µM [3, 13]: 232%; viability at 1.1 µM [5, 9]: 99.5%; viability at 10 µM [5, 10]: 67.9%; viability at 30 µM [5, 11]: 16.4%
CCc1nc(C(N)=O)c(Nc2ccc(N3CCC(N4CCN(C)CC4)CC3)c(OC)c2)nc1NC1CCOCC1 [LX-3303, Gilteritinib, reference compound]	–	–	–	–	–	–	–	–	–	–	activity at 30 µM [1, 12]: 275%; viability at 1.1 µM [2, 6]: 83.9%; viability at 10 µM [2, 7]: 13.9%; viability at […] [2, 8]: 69.4%; activity at 30 µM [3, 13]: 239%; viability at 1.1 µM [5, 9]: 101%; viability at 10 µM [5, 10]: 53.8%; viability at 30 µM [5, 11]: 11.7%
CO[C@@H]1[C@H](N(C)C(=O)c2ccccc2)C[C@H]2O[C@]1(C)n1c3ccccc3c3c4c(c5c6ccccc6n2c5c31)C(=O)NC4 [LX-3307, Midostaurin, reference compound]	–	–	–	–	–	–	–	–	–	–	activity at 30 µM [1, 12]: 288%; viability at 1.1 µM [2, 6]: 108%; viability at 10 µM [2, 7]: 32.7%; viability at […] [2, 8]: 96.1%; activity at 30 µM [3, 13]: 295%; viability at 1.1 µM [5, 9]: 99.8%; viability at 10 µM [5, 10]: 51.9%; viability at 30 µM [5, 11]: 20%
C=CC(=O)N1CCC([C@@H]2CCNc3c(C(N)=O)c(-c4ccc(Oc5ccccc5)cc4)nn32)CC1 [LX-3309, Zanubrutinib, reference compound]	–	–	–	–	–	–	–	–	–	–	activity at 30 µM [1, 12]: 293%; viability at 1.1 µM [2, 6]: 99.3%; viability at 10 µM [2, 7]: 36.9%; viability at […] [2, 8]: 87.1%; activity at 30 µM [3, 13]: 247%; viability at 1.1 µM [5, 9]: 104%; viability at 10 µM [5, 10]: 49.6%; viability at 30 µM [5, 11]: 35.2%
